Reference: ChEMBL document CHEMBL1944624, “Synthesis and antimalarial and antituberculosis activities of a series of natural and unnatural 4-methoxy-6-styryl-pyran-2-ones, dihydro analogues and photo-dimers” (Bioorg Med Chem, 2012)
Converted amounts (≈) assume the structure as drawn.

Experiments:
L6 = assay: Cytotoxicity against rat L6 myoblasts after 72 hrs by alamar blue assay; assay type: cell-based; settings: L6, 72 h
Leishmania donovani [1] = assay: Antiprotozoal activity against Leishmania donovani MHOM/ET/67/L82 axenic amastigotes after 72 hrs by alamar blue assay; assay type: functional, organism-based; settings: MHOM/ET/67/L82, 72 h
[2] = system: Trypanosoma brucei rhodesiense; assay: Antiprotozoal activity against Trypanosoma brucei rhodesiense STIB900 trypomastigotes after 72 hrs by alamar blue assay; assay type: functional, organism-based; settings: STIB900, 72 h
Trypanosoma cruzi = assay: Antiprotozoal activity against Trypanosoma cruzi Tulahuen C2C4 amastigotes infected in rat L6 myoblasts after 96 hrs by CPRG/Nonidet-based spectrophotometry; assay type: functional, organism-based; settings: Tulahuen C2C4, L6, 96 h
Plasmodium falciparum [3] = assay: microbe, parasite or virus in culture; assay type: functional, organism-based; settings: K1
Description: Antiprotozoal activity against erythrocytic stages chloroquine- and pyrimethamine-resistant Plasmodium falciparum K1 assessed as inhibition of [3H]hypoxanthine incorporation pre-incubated for 48 hrs prior [3H]hypoxanthine addition measured after 24 hrs by liquid scintillation counting

[4] = Selectivity index, ratio of IC50 for erythrocytic stages chloroquine and pyrimethamine-resistant Plasmodium falciparum K1 to IC50 for rat L6 myoblasts; set-up: reference not given here
[5] = system: Mycobacterium tuberculosis; assay: Antituberculosis activity against Mycobacterium tuberculosis; assay type: functional
Plasmodium falciparum [6] = assay: Antiprotozoal activity against Plasmodium falciparum; assay type: functional, organism-based
[7] = system: Trypanosoma brucei rhodesiense; assay: Antiprotozoal activity against Trypanosoma brucei rhodesiense; assay type: functional, organism-based
Leishmania donovani [8] = assay: Antiprotozoal activity against Leishmania donovani; assay type: functional, organism-based
Plasmodium falciparum [9] = assay: Antiprotozoal activity against chloroquine resistant Plasmodium falciparum K1; assay type: functional, organism-based

Row | SMILES | IC50 (L6) [µM] | IC50 (Leishmania donovani [1]) [µM] | IC50 [2] [µM] | IC50 (Trypanosoma cruzi) [µM] | IC50 (Plasmodium falciparum [3]) [µM] | Ratio IC50 [4] | MIC [5] [µM] | IC50 (Plasmodium falciparum [6]) [µM] | IC50 [7] [µM] | IC50 (Leishmania donovani [8]) [µM] | IC50 (Plasmodium falciparum [9]) [µM]
1 | COc1cc(CCc2ccc3c(c2)OCO3)oc(=O)c1 | 150 | > 330 | > 330 | > 330 | > 18 | – | – | – | – | – | –
2 | COc1cc(/C=C/c2ccc(OC)c(OC)c2)oc(=O)c1 | 160 | 270 | 31 | 170 | 3 | 54 | – | – | – | – | –
3 | COc1cc(/C=C/c2cccc([N+](=O)[O-])c2)oc(=O)c1 | 180 | 270 | 290 | > 330 | 12 | 15 | – | – | – | – | –
4 | COc1cc(/C=C/c2ccc([N+](=O)[O-])cc2)oc(=O)c1 | 190 | 49 | 38 | 240 | 6 | 32 | – | – | – | – | –
5 | COc1cc(/C=C/c2ccc(C(C)(C)C)cc2)oc(=O)c1 | 24 | 20 | 44 | 26 | 5.3 | 4 | – | – | – | – | –
6 | COc1cc(/C=C/c2ccc3c(c2)OCO3)oc(=O)c1 | 16 | 230 | 47 | 180 | 5.6 | 3 | – | – | – | – | –
7 | COc1cc(/C=C/c2cccc(Oc3ccccc3)c2)oc(=O)c1 | 13 | 30 | 8.8 | 43 | 4.9 | 3 | – | – | – | – | –
8 | COc1cc(/C=C/c2cccc(Oc3ccc(C(C)(C)C)cc3)c2)oc(=O)c1 | 64 | 25 | 34 | 40 | 6.3 | 10 | – | – | – | – | –
9 | COc1cc(/C=C/C=C/c2ccccc2)oc(=O)c1 | 190 | 220 | 150 | > 350 | 6.7 | 29 | – | – | – | – | –
10 | COc1cc(/C=C/C=C/c2ccc(N(C)C)cc2)oc(=O)c1 | 26 | > 300 | 290 | > 300 | 7.2 | 4 | – | – | – | – | –
11 | COc1cc(/C=C/c2ccco2)oc(=O)c1 | 140 | 240 | 76 | > 410 | 17 | 8 | – | – | – | – | –
12 | COc1cc(/C=C/c2cccc3ccccc23)oc(=O)c1 | 110 | 47 | 18 | 34 | 4.6 | 24 | – | – | – | – | –
13 | COc1cc(/C=C/c2ccc3ccccc3c2)oc(=O)c1 | 28 | > 320 | 2.7 | > 320 | 1.3 | 22 | – | – | – | – | –
14 | COc1cc(/C=C/c2ccc(/C=C/c3cc(OC)cc(=O)o3)cc2)oc(=O)c1 | > 240 | > 240 | 119 | > 240 | 8.6 | >28 | – | – | – | – | –
15 | COc1cc(CCc2ccc(C(C)(C)C)cc2)oc(=O)c1 | 95 | 24 | 78 | 55 | 11 | 9 | – | – | – | – | –
16 | COc1cc(CCc2ccc(OC)c(OC)c2)oc(=O)c1 | > 310 | 270 | 200 | > 310 | > 17 | – | – | – | – | – | –
17 | COc1cc(CCc2cccc(Oc3ccc(C(C)(C)C)cc3)c2)oc(=O)c1 | 50 | 15 | 65 | 36 | 7.2 | 7 | – | – | – | – | –

Row | SMILES | IC50 (L6) [µM] | IC50 (Leishmania donovani [1]) [µM] | IC50 [2] [µM] | IC50 (Trypanosoma cruzi) [µM] | IC50 (Plasmodium falciparum [3]) [µM] | Ratio IC50 [4] | MIC [5] [µM] | IC50 (Plasmodium falciparum [6]) [µM] | IC50 [7] [µM] | IC50 (Leishmania donovani [8]) [µM] | IC50 (Plasmodium falciparum [9]) [µM]
18 | COc1cc(CCc2cccc3ccccc23)oc(=O)c1 | 110 | 55 | 85 | 76 | > 18 | – | – | – | – | – | –
19 | COc1cc(CCc2ccc3ccccc3c2)oc(=O)c1 | 91 | 42 | 72 | 65 | 16 | 6 | – | – | – | – | –
20 | COc1cc(CCc2ccc(CCc3cc(OC)cc(=O)o3)cc2)oc(=O)c1 | 50 | > 240 | 200 | > 240 | 3.6 | 14 | – | – | – | – | –
21 | COc1cc(=O)oc([C@H]2[C@H](c3ccc(OC)c(OC)c3)[C@H](c3cc(OC)cc(=O)o3)[C@H]2c2ccc(OC)c(OC)c2)c1 | 22 | 75 | 6.2 | 38 | 3.1 | 7 | – | – | – | – | –
22 | COc1cc(=O)oc([C@H]2[C@H](c3ccc4ccccc4c3)[C@H](c3cc(OC)cc(=O)o3)[C@H]2c2ccc3ccccc3c2)c1 | 95 | 10 | 4.9 | 90 | 2.3 | 42 | – | – | – | – | –
23 | COc1cc([C@@H]2[C@@H](c3ccccc3)[C@@H](c3ccccc3)[C@@H]2c2cc(OC)cc(=O)o2)oc(=O)c1 | 51 | 17 | 15 | 32 | 3.8 | 13 | – | – | – | – | –
24 | CCCCCCc1c(OC)cc(CCCCC)oc1=O | – | – | – | – | – | – | 45 (≈ 12.6 µg/mL) | 11 | 14 | – | –
25 | COC1=CC(=O)O[C@]2(/C=C/c3ccc(C(C)(C)C)cc3)[C@H]1[C@H](c1ccc(C(C)(C)C)cc1)[C@H]2c1cc(OC)cc(=O)o1 (racemic) | 130 | 4.5 | 21 | 71 | 1.7 | 76 | – | – | – | – | –
26 | COC1=CC(=O)O[C@]2(/C=C/c3cccc(Oc4ccc(C(C)(C)C)cc4)c3)[C@H]1[C@H](c1cccc(Oc3ccc(C(C)(C)C)cc3)c1)[C@H]2c1cc(OC)cc(=O)o1 (racemic) | > 120 | 66 | > 120 | > 120 | 4.4 | >27 | – | – | – | – | –
27 | COC1=CC(=O)O[C@]2(/C=C/c3ccccc3)[C@H]1[C@H](c1ccccc1)[C@H]2c1cc(OC)cc(=O)o1 (relative stereo) | > 200 | 27 | 13 | 28 | 7.1 | >28 | – | – | – | – | –
28 | COC1=CC(=O)O[C@]2(/C=C/c3ccc(OC)c(OC)c3)[C@H]1[C@H](c1ccc(OC)c(OC)c1)[C@H]2c1cc(OC)cc(=O)o1 (relative stereo) | 120 | 79 | 61 | 130 | 1.5 | 80 | – | – | – | – | –
29 | O=C(Cn1ccnc1[N+](=O)[O-])NCc1ccccc1 [BENZNIDAZOLE] | – | – | – | 1.4 | – | – | – | – | – | – | –
30 | COc1cc(/C=C/c2ccccc2)oc(=O)c1 [DESMETHOXYYANGONIN] | 160 | 190 | 120 | 64 | 13 | 12 | – | – | – | – | –
31 | COc1cc(CCc2ccccc2)oc(=O)c1 [DIHYDRO-5,6-DEHYDROKAWAIN] | 290 | 190 | – | 240 | > 22 | – | – | – | – | – | –
32 | CCCCCCCCCCCCCCCCOP(=O)([O-])OCC[N+](C)(C)C [MILTEFOSINE] | – | 0.5 | – | – | – | – | – | – | – | – | –
33 | COc1cc([C@@H]2c3cc4c(cc3[C@H](O)[C@H]3COC(=O)[C@H]23)OCO4)cc(OC)c1OC [PODOFILOX] | 0.01 | – | – | – | – | – | – | – | – | – | –
34 | CCCCCCCC1CC(O)=C(CCCCCC)C(=O)O1 (centres undefined) [PSEUDOPYRONINE B] | – | – | – | – | – | – | 2.7 (≈ 0.8 µg/mL) | – | 42 | 4.8 | 48
